Reference: the kinase profiling compilation of Christmann-Franck et al. (2016)

Key:
Experiment in all cases: KINOMEscan competition binding
Settings in all cases: compound 1.0 µM
[1] = system: EGFR (human), P00533 [L861Q]
FER (human) = FER (human) (UniProt P16591)
BTK (human) = BTK (human) (UniProt Q06187)
TGFBR2 (human) = TGFBR2 (human) (UniProt P37173)
RPS6KA1 KD2 (human) = RPS6KA1 KD2 (human) (UniProt Q15418)
TIE1 (human) = TIE1 (human) (UniProt P35590)
SBK1 (human) = SBK1 (human) (UniProt Q52WX2)
MELK (human) = MELK (human) (UniProt Q14680)
ULK3 (human) = ULK3 (human) (UniProt Q6PHR2)
ULK3 (human), sequence (Q6PHR2 whole entry, looked up): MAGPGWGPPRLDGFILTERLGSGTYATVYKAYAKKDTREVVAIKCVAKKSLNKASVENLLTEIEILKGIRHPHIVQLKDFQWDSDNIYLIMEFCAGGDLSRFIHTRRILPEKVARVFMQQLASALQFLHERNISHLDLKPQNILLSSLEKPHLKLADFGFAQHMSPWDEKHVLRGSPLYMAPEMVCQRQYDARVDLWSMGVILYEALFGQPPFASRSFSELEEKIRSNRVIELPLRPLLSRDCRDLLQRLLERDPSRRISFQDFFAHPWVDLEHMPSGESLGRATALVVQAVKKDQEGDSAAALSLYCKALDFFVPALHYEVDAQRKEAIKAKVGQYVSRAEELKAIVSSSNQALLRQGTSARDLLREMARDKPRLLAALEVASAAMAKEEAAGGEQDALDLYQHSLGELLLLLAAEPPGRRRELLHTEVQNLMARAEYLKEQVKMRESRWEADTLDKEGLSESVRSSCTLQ

MAPK11 (human) = MAPK11 (human) (UniProt Q15759)
ICK (human) = ICK (human) (UniProt Q9UPZ9)
MST1R (human) = MST1R (human) (UniProt Q04912)
MAPK8 (human) = MAPK8 (human) (UniProt P45983)
FRK (human) = FRK (human) (UniProt P42685)
CHEK2 (human) = CHEK2 (human) (UniProt O96017)
CHEK2 (human), sequence (O96017 whole entry, looked up): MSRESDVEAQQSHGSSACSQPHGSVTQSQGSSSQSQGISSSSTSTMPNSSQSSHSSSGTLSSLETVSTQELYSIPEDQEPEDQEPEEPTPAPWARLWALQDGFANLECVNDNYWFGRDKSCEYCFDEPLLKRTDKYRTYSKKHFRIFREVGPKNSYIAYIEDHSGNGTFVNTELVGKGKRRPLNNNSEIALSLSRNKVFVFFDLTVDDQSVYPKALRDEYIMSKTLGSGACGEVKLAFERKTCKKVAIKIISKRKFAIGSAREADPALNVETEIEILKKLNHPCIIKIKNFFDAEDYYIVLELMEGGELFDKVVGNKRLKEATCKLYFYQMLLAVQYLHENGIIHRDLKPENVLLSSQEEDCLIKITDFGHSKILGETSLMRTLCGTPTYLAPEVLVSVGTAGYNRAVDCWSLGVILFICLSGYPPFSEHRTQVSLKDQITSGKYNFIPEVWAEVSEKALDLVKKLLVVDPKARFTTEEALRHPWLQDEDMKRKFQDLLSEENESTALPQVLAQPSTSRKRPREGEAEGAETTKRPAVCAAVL

TNK2 (human) = TNK2 (human) (UniProt Q07912)
TNK2 (human), sequence (Q07912 whole entry, looked up): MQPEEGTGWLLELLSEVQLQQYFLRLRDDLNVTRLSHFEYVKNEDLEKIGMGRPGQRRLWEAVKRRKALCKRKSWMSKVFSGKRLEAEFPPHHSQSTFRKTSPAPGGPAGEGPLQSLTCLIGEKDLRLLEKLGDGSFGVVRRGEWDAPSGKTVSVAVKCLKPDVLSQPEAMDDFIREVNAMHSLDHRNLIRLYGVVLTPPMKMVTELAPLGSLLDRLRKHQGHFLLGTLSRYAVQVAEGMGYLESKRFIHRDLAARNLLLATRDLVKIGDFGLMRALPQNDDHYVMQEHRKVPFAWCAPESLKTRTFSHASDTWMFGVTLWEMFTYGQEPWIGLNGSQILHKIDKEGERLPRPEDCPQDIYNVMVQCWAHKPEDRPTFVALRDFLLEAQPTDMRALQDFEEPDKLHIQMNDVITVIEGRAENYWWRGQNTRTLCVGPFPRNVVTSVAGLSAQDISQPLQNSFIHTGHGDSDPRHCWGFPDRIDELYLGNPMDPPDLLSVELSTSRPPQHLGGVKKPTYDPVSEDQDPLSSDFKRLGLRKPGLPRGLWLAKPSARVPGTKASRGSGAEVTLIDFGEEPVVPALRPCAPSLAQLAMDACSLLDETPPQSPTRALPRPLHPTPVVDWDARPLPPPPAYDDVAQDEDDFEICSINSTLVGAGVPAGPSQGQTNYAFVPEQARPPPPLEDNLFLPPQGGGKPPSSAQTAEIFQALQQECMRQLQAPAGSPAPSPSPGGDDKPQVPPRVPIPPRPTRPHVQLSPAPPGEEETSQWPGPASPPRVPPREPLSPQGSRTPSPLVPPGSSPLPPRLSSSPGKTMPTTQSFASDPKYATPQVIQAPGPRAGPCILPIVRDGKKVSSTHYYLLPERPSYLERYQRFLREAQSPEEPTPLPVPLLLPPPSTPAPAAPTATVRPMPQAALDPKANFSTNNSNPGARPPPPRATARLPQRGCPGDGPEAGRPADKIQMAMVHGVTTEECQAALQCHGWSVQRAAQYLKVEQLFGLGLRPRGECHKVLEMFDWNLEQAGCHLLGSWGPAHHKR

SRMS (human) = SRMS (human) (UniProt Q9H3Y6)
HIPK4 (human) = HIPK4 (human) (UniProt Q8NE63)
PAK1 (human) = PAK1 (human) (UniProt Q13153)
[2] = system: RET (human), P07949 [V804M]
PRKAA1 (human) = PRKAA1 (human) (UniProt Q13131)
[3] = system: PIK3CA (human), P42336 [I800L]
PRKCH (human) = PRKCH (human) (UniProt P24723)
[4] = system: FLT3 (human), P36888 [ITD]
LATS1 (human) = LATS1 (human) (UniProt O95835)
CDK13 (human) = CDK13 (human) (UniProt Q14004)
MYLK2 (human) = MYLK2 (human) (UniProt Q9H1R3)
ACVR2A (human) = ACVR2A (human) (UniProt P27037)
ADCK3 (human) = ADCK3 (human) (UniProt Q8NI60)
ADCK3 (human), sequence (Q8NI60 whole entry, looked up): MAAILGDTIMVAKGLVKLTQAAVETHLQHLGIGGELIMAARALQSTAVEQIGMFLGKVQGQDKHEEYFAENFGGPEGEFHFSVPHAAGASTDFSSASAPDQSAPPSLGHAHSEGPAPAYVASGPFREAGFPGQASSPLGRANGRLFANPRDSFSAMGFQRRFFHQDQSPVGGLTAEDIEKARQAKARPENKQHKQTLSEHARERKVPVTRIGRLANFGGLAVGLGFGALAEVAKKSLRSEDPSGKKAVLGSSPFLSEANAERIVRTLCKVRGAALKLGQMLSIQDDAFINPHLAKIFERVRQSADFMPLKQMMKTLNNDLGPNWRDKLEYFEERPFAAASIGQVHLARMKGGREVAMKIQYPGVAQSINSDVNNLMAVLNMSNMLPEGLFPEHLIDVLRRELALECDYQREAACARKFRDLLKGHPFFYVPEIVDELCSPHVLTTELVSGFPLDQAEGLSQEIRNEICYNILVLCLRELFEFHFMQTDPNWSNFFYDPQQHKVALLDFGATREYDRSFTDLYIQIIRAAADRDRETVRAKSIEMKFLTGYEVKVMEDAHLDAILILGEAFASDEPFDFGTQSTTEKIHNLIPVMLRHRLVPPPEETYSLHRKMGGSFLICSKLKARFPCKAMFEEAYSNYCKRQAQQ

FGFR2 (human) = FGFR2 (human) (UniProt P21802)
MAST1 (human) = MAST1 (human) (UniProt Q9Y2H9)
MKNK2 (human) = MKNK2 (human) (UniProt Q9HBH9)
NTRK2 (human) = NTRK2 (human) (UniProt Q16620)
MAP2K1 (human) = MAP2K1 (human) (UniProt Q02750)
RIPK1 (human) = RIPK1 (human) (UniProt Q13546)
CDK15 (human) = CDK15 (human) (UniProt Q96Q40)
HIPK2 (human) = HIPK2 (human) (UniProt Q9H2X6)
HIPK2 (human), sequence (Q9H2X6 whole entry, looked up): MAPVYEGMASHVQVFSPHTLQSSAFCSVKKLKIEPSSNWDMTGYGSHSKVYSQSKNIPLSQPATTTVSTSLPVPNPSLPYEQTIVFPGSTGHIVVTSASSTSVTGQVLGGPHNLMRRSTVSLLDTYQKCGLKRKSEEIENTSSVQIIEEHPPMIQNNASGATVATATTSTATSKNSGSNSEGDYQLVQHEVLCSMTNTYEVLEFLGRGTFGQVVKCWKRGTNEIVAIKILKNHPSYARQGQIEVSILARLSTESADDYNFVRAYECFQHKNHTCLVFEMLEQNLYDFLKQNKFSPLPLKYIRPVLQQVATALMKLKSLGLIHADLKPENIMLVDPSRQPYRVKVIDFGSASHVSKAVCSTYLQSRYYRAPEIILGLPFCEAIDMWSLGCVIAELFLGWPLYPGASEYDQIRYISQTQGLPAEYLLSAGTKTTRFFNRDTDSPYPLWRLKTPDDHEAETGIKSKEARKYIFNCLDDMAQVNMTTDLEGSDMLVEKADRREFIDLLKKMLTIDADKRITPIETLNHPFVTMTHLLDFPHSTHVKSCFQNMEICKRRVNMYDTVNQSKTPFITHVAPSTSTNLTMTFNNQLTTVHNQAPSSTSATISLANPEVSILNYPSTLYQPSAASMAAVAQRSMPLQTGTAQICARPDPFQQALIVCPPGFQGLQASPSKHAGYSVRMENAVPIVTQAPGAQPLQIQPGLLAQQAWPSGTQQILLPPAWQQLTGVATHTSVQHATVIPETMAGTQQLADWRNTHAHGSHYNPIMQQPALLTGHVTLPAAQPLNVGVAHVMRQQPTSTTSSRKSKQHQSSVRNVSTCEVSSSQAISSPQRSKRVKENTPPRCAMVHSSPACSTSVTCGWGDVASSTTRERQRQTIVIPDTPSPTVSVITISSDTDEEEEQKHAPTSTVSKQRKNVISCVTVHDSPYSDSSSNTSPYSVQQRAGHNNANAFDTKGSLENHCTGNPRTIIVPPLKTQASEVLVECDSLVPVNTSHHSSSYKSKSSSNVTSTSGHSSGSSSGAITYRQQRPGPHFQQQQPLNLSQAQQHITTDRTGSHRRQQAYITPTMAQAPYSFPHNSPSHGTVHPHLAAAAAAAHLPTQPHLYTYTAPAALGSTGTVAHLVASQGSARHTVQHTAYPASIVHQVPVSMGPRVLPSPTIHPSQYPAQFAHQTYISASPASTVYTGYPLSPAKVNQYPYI

PIM3 (human) = PIM3 (human) (UniProt Q86V86)
[5] = system: KIT (human), P10721 [A829P]
KIT (human), P10721 [A829P], sequence (P10721 whole entry A829P, looked up): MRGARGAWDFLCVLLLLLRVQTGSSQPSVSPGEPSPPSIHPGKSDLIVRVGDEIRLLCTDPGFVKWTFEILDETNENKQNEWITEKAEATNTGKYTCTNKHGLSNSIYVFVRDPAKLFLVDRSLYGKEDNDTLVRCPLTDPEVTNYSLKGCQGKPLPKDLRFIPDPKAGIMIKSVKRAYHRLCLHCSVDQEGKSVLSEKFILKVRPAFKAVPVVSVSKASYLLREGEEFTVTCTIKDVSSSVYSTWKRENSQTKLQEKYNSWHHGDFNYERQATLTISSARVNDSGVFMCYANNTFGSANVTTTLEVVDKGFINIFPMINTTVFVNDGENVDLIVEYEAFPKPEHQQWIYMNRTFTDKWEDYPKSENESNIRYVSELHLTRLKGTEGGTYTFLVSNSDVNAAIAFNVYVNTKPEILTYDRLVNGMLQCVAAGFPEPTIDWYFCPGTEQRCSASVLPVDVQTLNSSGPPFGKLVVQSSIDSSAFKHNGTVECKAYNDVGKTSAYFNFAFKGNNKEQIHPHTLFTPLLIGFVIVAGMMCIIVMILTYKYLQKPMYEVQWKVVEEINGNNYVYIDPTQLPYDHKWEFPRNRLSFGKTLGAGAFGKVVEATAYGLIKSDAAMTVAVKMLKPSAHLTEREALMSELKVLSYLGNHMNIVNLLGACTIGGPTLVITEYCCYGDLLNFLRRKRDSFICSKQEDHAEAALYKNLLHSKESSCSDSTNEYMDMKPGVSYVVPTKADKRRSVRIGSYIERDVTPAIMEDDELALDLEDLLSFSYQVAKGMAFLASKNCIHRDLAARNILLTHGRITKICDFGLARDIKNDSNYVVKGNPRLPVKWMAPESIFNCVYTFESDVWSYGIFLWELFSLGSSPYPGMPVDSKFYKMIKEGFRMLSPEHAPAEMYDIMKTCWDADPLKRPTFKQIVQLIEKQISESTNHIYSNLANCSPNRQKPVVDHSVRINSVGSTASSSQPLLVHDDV

Question: Which kinase still bound, per cent of control [1] does the source give for `CNc1nc(Nc2ccc(C(=O)N3CCOCC3)cc2OC)ncc1Cl` here?
Answer: The kinase still bound, per cent of control was 100%.

Question: What about the kinase still bound, per cent of control (FER (human)) of the same compound?
Answer: Its kinase still bound, per cent of control is 100%.

Question: What about the kinase still bound, per cent of control (BTK (human)) of the same compound?
Answer: Its kinase still bound, per cent of control is 100%.

Question: What about the kinase still bound, per cent of control (TGFBR2 (human)) of the same compound?
Answer: Its kinase still bound, per cent of control is 100%.

Question: And the kinase still bound, per cent of control (RPS6KA1 KD2 (human))?
Answer: The kinase still bound, per cent of control was 88%.

Question: What about the kinase still bound, per cent of control (TIE1 (human)) of the same compound?
Answer: The kinase still bound, per cent of control was 100%.

Question: What about the kinase still bound, per cent of control (SBK1 (human)) of the same compound?
Answer: Its kinase still bound, per cent of control is 100%.

Question: And the kinase still bound, per cent of control (MELK (human))?
Answer: Its kinase still bound, per cent of control is 100%.

Question: What about the kinase still bound, per cent of control (ULK3 (human)) of the same compound?
Answer: Its kinase still bound, per cent of control is 83%.

Question: What about the kinase still bound, per cent of control (MAPK11 (human)) of the same compound?
Answer: Its kinase still bound, per cent of control is 100%.

Question: What about the kinase still bound, per cent of control (ICK (human)) of the same compound?
Answer: Its kinase still bound, per cent of control is 100%.

Question: And the kinase still bound, per cent of control (MST1R (human))?
Answer: The kinase still bound, per cent of control was 100%.

Question: And the kinase still bound, per cent of control (MAPK8 (human))?
Answer: The kinase still bound, per cent of control was 44%.

Question: What about the kinase still bound, per cent of control (FRK (human)) of the same compound?
Answer: Its kinase still bound, per cent of control is 63%.

Question: And the kinase still bound, per cent of control (CHEK2 (human))?
Answer: The kinase still bound, per cent of control was 26%.

Question: And the kinase still bound, per cent of control (TNK2 (human))?
Answer: The kinase still bound, per cent of control was 78%.

Question: And the kinase still bound, per cent of control (SRMS (human))?
Answer: Its kinase still bound, per cent of control is 100%.

Question: And the kinase still bound, per cent of control (HIPK4 (human))?
Answer: The kinase still bound, per cent of control was 100%.

Question: And the kinase still bound, per cent of control (PAK1 (human))?
Answer: Its kinase still bound, per cent of control is 100%.

Question: What about the kinase still bound, per cent of control [2] of the same compound?
Answer: The kinase still bound, per cent of control was 92%.

Question: And the kinase still bound, per cent of control (PRKAA1 (human))?
Answer: The kinase still bound, per cent of control was 95%.

Question: What about the kinase still bound, per cent of control [3] of the same compound?
Answer: Its kinase still bound, per cent of control is 96%.

Question: What about the kinase still bound, per cent of control (PRKCH (human)) of the same compound?
Answer: The kinase still bound, per cent of control was 100%.

Question: And the kinase still bound, per cent of control [4]?
Answer: The kinase still bound, per cent of control was 87%.

Question: And the kinase still bound, per cent of control (LATS1 (human))?
Answer: Its kinase still bound, per cent of control is 100%.

Question: And the residual activity (CDK13 (human))?
Answer: The residual activity was 89%.

Question: And the kinase still bound, per cent of control (MYLK2 (human))?
Answer: The kinase still bound, per cent of control was 100%.

Question: What about the kinase still bound, per cent of control (ACVR2A (human)) of the same compound?
Answer: Its kinase still bound, per cent of control is 75%.

Question: And the kinase still bound, per cent of control (ADCK3 (human))?
Answer: Its kinase still bound, per cent of control is 100%.

Question: What about the kinase still bound, per cent of control (FGFR2 (human)) of the same compound?
Answer: Its kinase still bound, per cent of control is 100%.

Question: And the kinase still bound, per cent of control (MAST1 (human))?
Answer: Its kinase still bound, per cent of control is 93%.

Question: And the kinase still bound, per cent of control (MKNK2 (human))?
Answer: The kinase still bound, per cent of control was 14%.

Question: What about the kinase still bound, per cent of control (NTRK2 (human)) of the same compound?
Answer: Its kinase still bound, per cent of control is 93%.

Question: What about the kinase still bound, per cent of control (MAP2K1 (human)) of the same compound?
Answer: The kinase still bound, per cent of control was 89%.

Question: What about the kinase still bound, per cent of control (RIPK1 (human)) of the same compound?
Answer: Its kinase still bound, per cent of control is 100%.

Question: And the residual activity (CDK15 (human))?
Answer: The residual activity was 84%.

Question: And the kinase still bound, per cent of control (HIPK2 (human))?
Answer: Its kinase still bound, per cent of control is 100%.

Question: And the kinase still bound, per cent of control (PIM3 (human))?
Answer: The kinase still bound, per cent of control was 100%.

Question: And the kinase still bound, per cent of control [5]?
Answer: Its kinase still bound, per cent of control is 93%.
